Calls of active or inactive are those of the source. No cut-off for these calls is given here.

Assay [1] is filed under the species Oryctolagus cuniculus. As to the kind of experiment: Compound was evaluated for reduction of arterial medium pressure of rabbit by 30 mm Hg. The format is functional, Artery.
Assay [2] deals with Rattus norvegicus. As to the kind of experiment: Compound was evaluated for T-wave increase of rat EKG measured as percent reduction after 30 min at a dosage of 200 mg/kg. The assay is classed as functional.
In assay [3] the test system is Rattus norvegicus. Briefly: Compound was evaluated for T-wave increase of rat EKG measured as percent reduction after 30 min at a dosage of 8 mg/kg. The format is functional.
Assay [4] has as its system Rattus norvegicus. As to the kind of experiment: Compound was evaluated for T-wave increase of rat EKG measured as percent reduction after 30 min at a dosage of 60 mg/kg. The format is functional.
The subject of assay [5] is Rattus norvegicus. As to the kind of experiment: Compound was evaluated for T-wave increase of rat EKG measured as percent reduction after 30 min at a dosage of 4 mg/kg. The format is functional.
Assay [6] deals with Rattus norvegicus. Briefly: Compound was evaluated for T-wave increase of rat EKG measured as percent reduction after 30 min at a dosage of 100 mg/kg; NE means no effect. The format is functional, organism-based. Further details: dose 100 mg/kg.
The mark [7] stands for this setting: Oryctolagus cuniculus, Artery, read-out: ED30.

`O=[N+]([O-])OC1COC2CCOC21` (stereo in doubt; 6b) came in with an ED30 in assay [1] of 1 mg/kg. Also, the Reduction in assay [2] (200 mg/kg) is given as -33%. As for `O=[N+]([O-])OC1COC2C1OC[C@@H]2Cl` (stereo in doubt; 5a), the ED30 in assay [1] (setting [7]) stood at 0.1 mg/kg. In addition, the Reduction in assay [2] is on record as -38%. As for `O=[N+]([O-])O[C@@H]1CO[C@H]2[C@@H]1OC[C@@H]2O` [ISOSORBIDE MONONITRATE], the ED30 in assay [1] turned out to be 0.31 mg/kg. Besides, in assay [3], the Reduction is on record as -59%. Turning to `O=[N+]([O-])OC1CO[C@@H]2C(O)CO[C@H]12` (single isomer, unassigned) [ISOSORBIDE MONONITRATE], the ED30 in assay [1] worked out at 3.43 mg/kg. The Reduction in assay [4] is listed as -43%.

Take `O=[N+]([O-])O[C@H]1CO[C@H]2[C@@H]1OC[C@H]2O[N+](=O)[O-]` [ISOSORBIDE DINITRATE]: the ED30 in assay [1] (setting [7]) amounted to 0.08 mg/kg. Moreover, the Reduction in assay [5] was -75%. In the case of `O=[N+]([O-])OC1COC2CCOC21` (stereo in doubt; 6a), the ED30 in assay [1] (setting [7]) worked out at 0.6 mg/kg. In addition, the Reduction in assay [2] (200 mg/kg) is -38%.

Take `O=[N+]([O-])OC1COC2C1OC[C@@H]2Cl` (stereo in doubt; 5b) [listing 1 of 2 here]: the Reduction entry in assay [6] was “inactive”. In assay [1], `O=[N+]([O-])OC1COC2C1OC[C@@H]2Cl` (stereo in doubt; 5b) [listing 2 of 2 here] gave an ED30 of 0.14 mg/kg.

Values taken from ChEMBL document CHEMBL1125961, “Monodeoxy-1,4:3,6-dianhydrohexitol nitrates” (1991).
